In patent US7718637B2, “(20S)-23,23-difluoro-methylene-19-nor-bishomopregnacalciferol-vitamin D analogs” (Wisconsin Alumni Research Foundation, priority 2007, dated 2010):
pEC50, pKi: −log10 of the molar value. Read-outs that look alike come from different tables or passages of the source.

Key:
[1] = biological target: T1, full-length recombinant rat vitamin D receptor (Rattus norvegicus, UniProt P13053); assay: Vitamin D receptor binding (competition with [3H]-1,25(OH)2D3); conditions: full-length recombinant rat VDR; FIG. 1
T1 construct: Full-length recombinant rat receptor was expressed in E. coli BL21 (DE3) Codon Plus RIL cells; histidine tag (C); made in house; host or cells: E. coli BL21 (DE3) Codon Plus RIL
T1 sequence (P13053 1-423): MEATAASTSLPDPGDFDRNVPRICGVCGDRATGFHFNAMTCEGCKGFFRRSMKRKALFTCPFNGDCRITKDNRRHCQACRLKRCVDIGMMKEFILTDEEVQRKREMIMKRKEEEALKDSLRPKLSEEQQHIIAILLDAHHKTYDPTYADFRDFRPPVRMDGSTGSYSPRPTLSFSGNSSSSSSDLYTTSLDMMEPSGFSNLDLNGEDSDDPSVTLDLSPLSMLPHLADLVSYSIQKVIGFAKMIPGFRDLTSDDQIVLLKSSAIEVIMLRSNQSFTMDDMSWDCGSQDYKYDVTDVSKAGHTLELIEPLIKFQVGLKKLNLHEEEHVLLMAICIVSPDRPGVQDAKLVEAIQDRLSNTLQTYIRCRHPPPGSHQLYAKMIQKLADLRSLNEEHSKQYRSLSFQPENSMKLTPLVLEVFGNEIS
Source text: Vitamin D Receptor Binding
Full-length recombinant rat receptor was expressed in E. coli BL21 (DE3) Codon Plus RIL cells and purified to homogeneity using two different column chromatography systems. The first system was a nickel affinity resin that utilizes the C-terminal histidine tag on this protein. The protein that was eluted from this resin was further purified using ion exchange chromatography (S-Sepharose Fast Flow). Aliquots of the purified protein were quick frozen in liquid nitrogen and stored at −80° C. until use. For use in binding assays, the protein was diluted in TEDK50 (50 mM Tris, 1.5 mM EDTA, pH7.4, 5 mM DTT, 150 mM KCl) with 0.1% Chaps detergent. The receptor protein and ligand concentration were optimized such that no more than 20% of the added radiolabeled ligand was bound to the receptor.
Radiolabeled and unlabeled ligands were added to 100 mcl of the diluted protein at a final ethanol concentration of ≦10%, mixed and incubated overnight on ice to reach binding equilibrium. The following day, 100 mcl of hydroxylapatite slurry (50%) was added to each tube and mixed at 10-minute intervals for 30 minutes. The hydroxylapaptite was collected by centrifugation and then washed three times with Tris-EDTA buffer (50 mM Tris, 1.5 mM EDTA, pH 7.4) containing 0.5% Titron X-100. […] Total binding was determined from the tubes containing only radiolabeled ligand.

[2] = Intestinal calcium transport (everted gut sac method) in vitamin D-deficient rats; assay type: in vivo, Sprague-Dawley rats; conditions: FIG. 5; for intestinal calcium transport: everted gut sac
Procedure: (§1) Intestinal Calcium Transport and Bone Calcium Mobilization
(§2) Male, weanling Sprague-Dawley rats were placed on Diet 11 (0.47% Ca) diet +AEK oil for one week followed by Diet 11 (0.02% Ca) +AEK oil for 3 weeks. The rats were then switched to a diet containing 0.47% Ca for one week followed by two weeks on a diet containing 0.02% Ca. Dose administration began during the last week on 0.02% calcium diet. Four consecutive ip doses were given approximately 24 hours apart. Twenty-four hours after the last dose, blood was collected from the severed neck and the concentration of serum calcium determined as a measure of bone calcium mobilization. The first 10 cm of the intestine was also collected for intestinal calcium transport analysis using the everted gut sac method.

[3] = tested on: 24-hydroxylase (24Ohase) gene promoter in ROS 17/2.8 (bone) cells; assay: In vitro transcription assay (24-hydroxylase promoter luciferase reporter); assay type: cell-based; conditions: FIG. 3; for pEC50: ROS 17/2.8 cells, 24-hydroxylase promoter-luciferase, read-out: EC50, transcriptional activity in bone cells
Procedure: In Vitro Transcription Assay
Transcription activity was measured in ROS 17/2.8 (bone) cells that were stably transfected with a 24-hydroxylase (24Ohase) gene promoter upstream of a luciferase reporter gene (Arbour et al., 1998). Cells were given a range of doses. Sixteen hours after dosing the cells were harvested and luciferase activities were measured using a luminometer.
RLU=relative luciferase units.

[4] = Bone calcium mobilization (serum calcium) in vitamin D-deficient rats; assay type: in vivo, Sprague-Dawley rats; conditions: FIG. 4
Procedure: as §1, §2

HL-60 cells = assay: HL-60 differentiation (nitro blue tetrazolium reduction); assay type: cell-based, Human; conditions: FIG. 2; for pEC50: HL-60 cells, read-out: EC50, HL-60 cell differentiation
Procedure: The study drugs were dissolved in ethanol and the concentrations determined using UV spectrophotometry. Serial dilutions were prepared so that a range of drug concentrations could be tested without changing the final concentration of ethanol (≦0.2%) present in the cell cultures.
Human promyelocytic leukemia (HL60) cells were grown in RPMI-1640 medium containing 10% fetal bovine serum. The cells were incubated at 37° C. in the presence of 5% CO2.
HL60 cells were plated at 1.2×10^5 cells/ml. Eighteen hours after plating, cells in duplicate were treated with drug. Four days later, the cells were harvested and a nitro blue tetrazolium reduction assay was performed (Collins et al., 1979; J. Exp. Med. 149:969-974). The percentage of differentiated cells was determined by counting a total of 200 cells and recording the number that contained intracellular black-blue formazan deposits. Verification of differentiation to monocytic cells was determined by measuring phagocytic activity (data not shown).

Row | pKi [1] | binding to vitamin D receptor compared to standard 1,25-(OH)2D3 (in words) [1] | pEC50 (HL-60 cells; Homo sapiens) | SMILES | intestinal calcium transport ([2]; 2340 pmol/day) | intestinal calcium transport ([2]; 35100 pmol/day) | intestinal calcium transport activity compared to 1,25(OH)2D3 (in words) ([2]; overall) | transcriptional activity in bone cells compared to 1α,25-dihydroxyvitamin D3 (in words) [3] | pEC50 [3] | bone calcium mobilization ([4]; 2340 pmol/day ip for 4 consecutive days, vitamin D-deficient rats, 0.02% Ca diet) | bone calcium mobilization ([4]; 35100 pmol/day, vitamin D-deficient rats, 0.02% Ca diet) | bone calcium mobilization activity compared to 1,25(OH)2D3 (in words) ([4]; overall) | potency on HL-60 cell differentiation compared to 1,25(OH)2D3 (in words) (HL-60 cells) | intestinal calcium transport ([2]; 87 pmol/day) | serum calcium levels (bone calcium mobilization) ([4]; native hormone, dose not given, vitamin D-deficient rats, 0.02% Ca diet) | pEC50 (HL-60 cells)
1 | 10.30 | bound almost equally to the receptor | 8.00 | C=C1[C@H](O)CC(=C/C=C2\CCC[C@]3(C)[C@@H]([C@@H](C)CC(F)F)CC[C@@H]23)C[C@H]1O [FF-55, (20S)-23,23-difluoro-1α-hydroxy-2-methylene-19-nor-bishomopregnacalciferol] | does not promote intestinal calcium transport | significant intestinal calcium transport activity | very little activity | about the same transcriptional activity | 8.52 | did not result in mobilization of bone calcium | without any effect | very little bone calcium mobilization activity | almost as potent as 1,25(OH)2D3 | – | – | –
2 | – | – | – | C=C1/C(=C\C=C2/CCC[C@]3(C)[C@@H]([C@H](C)CCCC(C)(C)O)CC[C@@H]23)C[C@@H](O)C[C@@H]1O [1α,25-dihydroxyvitamin D3, reference compound] | – | – | – | – | 9.52 | – | – | – | – | promotes a significant increase | increased serum calcium levels | 8.52
